Source: ChEMBL document CHEMBL4627322, “Design and synthesis of a novel class EGFR/HER2 dual inhibitors containing tricyclic oxazine fused quinazolines scaffold” (Bioorg Med Chem Lett, 2020)

Columns and labels:
NCI-N87 [1] = experiment: cells; type: functional, cell-based; conditions: Homo sapiens, NCI-N87, 72 h
Description: Antiproliferative activity against human NCI-N87 cells overexpressing HER2 assessed as cell growth inhibition measured after 72 hrs by MTT assay

BT-474 [2] = experiment: cells; type: functional, cell-based; conditions: Homo sapiens, BT-474, 72 h
Description: Antiproliferative activity against human BT474 cells overexpressing HER2 assessed as cell growth inhibition measured after 72 hrs by MTT assay

A-431 [3] = experiment: cells; type: functional, cell-based; conditions: Homo sapiens, A-431, 72 h
Description: Antiproliferative activity against human A431 cells overexpressing EGFR assessed as cell growth inhibition measured after 72 hrs by MTT assay

NCI-H1975 [4] = experiment: cells; type: functional, cell-based; conditions: Homo sapiens, NCI-H1975, 72 h
Description: Antiproliferative activity against human NCI-H1975 cells harboring EGFR L858R/T790M mutant assessed as cell growth inhibition measured after 72 hrs by MTT assay

Calu-3 [5] = experiment: cells; type: functional, cell-based; conditions: Homo sapiens, Calu-3, 72 h
Description: Antiproliferative activity against human Calu3 cells overexpressing HER2 assessed as cell growth inhibition measured after 72 hrs by MTT assay

[6] = target: T1, Receptor tyrosine-protein kinase erbB-2 (Homo sapiens, UniProt P04626); experiment: Potency index, ratio of gefitinib IC50 to test compound IC50 for inhibition of HER2 (unknown origin) using FAM-labeled peptide as substrate preincubated for 10 mins followed by substrate addition measured after 40 mins in presence of ATP by caliper mobility shift assay
[7] = target: T1, Receptor tyrosine-protein kinase erbB-2; experiment: Potency index, ratio of lapatinib IC50 to test compound IC50 for inhibition of HER2 (unknown origin) using FAM-labeled peptide as substrate preincubated for 10 mins followed by substrate addition measured after 40 mins in presence of ATP by caliper mobility shift assay
[8] = target: T2, Epidermal growth factor receptor (Homo sapiens, UniProt P00533); type: cell-based, KB
Description: Inhibition of EGFR in human KB cells assessed as reduction in EGF-stimulated EGFR phosphorylation preincubated for 1 hr followed by EGF stimulation and measured after 6 mins by ELISA

[9] = target: T1, Receptor tyrosine-protein kinase erbB-2; experiment: Inhibition of HER2 (unknown origin) using FAM-labeled peptide as substrate preincubated for 10 mins followed by substrate addition measured after 40 mins in presence of ATP by caliper mobility shift assay
NCI-H1975 [10] = experiment: Potency index, ratio of lapatinib IC50 to test compound IC50 for antiproliferative activity against human NCI-H1975 cells harboring EGFR L858R/T790M mutant assessed as cell growth inhibition measured after 72 hrs by MTT assay; type: functional
[11] = target: T2, Epidermal growth factor receptor; experiment: Potency index, ratio of lapatinib IC50 to test compound IC50 for inhibition of EGFR (unknown origin) using FAM-labeled peptide as substrate preincubated for 10 mins followed by substrate addition measured after 40 mins in presence of ATP by caliper mobility shift assay
NCI-H1975 [12] = experiment: Potency index, ratio of gefitinib IC50 to test compound IC50 for antiproliferative activity against human NCI-H1975 cells harboring EGFR L858R/T790M mutant assessed as cell growth inhibition measured after 72 hrs by MTT assay; type: functional
[13] = target: T2, Epidermal growth factor receptor
Description: Inhibition of EGFR (unknown origin) using FAM-labeled peptide as substrate preincubated for 10 mins followed by substrate addition measured after 40 mins in presence of ATP by caliper mobility shift assay

NCI-H1975 [14] = experiment: Potency index, ratio of erlotinib IC50 to test compound IC50 for antiproliferative activity against human NCI-H1975 cells harboring EGFR L858R/T790M mutant assessed as cell growth inhibition measured after 72 hrs by MTT assay; type: functional
[15] = target: T1, Receptor tyrosine-protein kinase erbB-2; experiment: Potency index, ratio of erlotinib IC50 to test compound IC50 for inhibition of HER2 (unknown origin) using FAM-labeled peptide as substrate preincubated for 10 mins followed by substrate addition measured after 40 mins in presence of ATP by caliper mobility shift assay
BT-474 [16] = experiment: Potency index, ratio of gefitinib IC50 to test compound IC50 for antiproliferative activity against human BT474 cells overexpressing HER2 assessed as cell growth inhibition measured after 72 hrs by MTT assay; type: functional
NCI-N87 [17] = experiment: Potency index, ratio of gefitinib IC50 to test compound IC50 for antiproliferative activity against human NCI-N87 cells overexpressing HER2 assessed as cell growth inhibition measured after 72 hrs by MTT assay; type: functional
A-431 [18] = experiment: Potency index, ratio of gefitinib IC50 to test compound IC50 for antiproliferative activity against human A431 cells overexpressing EGFR assessed as cell growth inhibition measured after 72 hrs by MTT assay; type: functional
NCI-N87 [19] = experiment: Potency index, ratio of erlotinib IC50 to test compound IC50 for antiproliferative activity against human NCI-N87 cells overexpressing HER2 assessed as cell growth inhibition measured after 72 hrs by MTT assay; type: functional
Calu-3 [20] = experiment: Potency index, ratio of erlotinib IC50 to test compound IC50 for antiproliferative activity against human Calu3 cells overexpressing HER2 assessed as cell growth inhibition measured after 72 hrs by MTT assay; type: functional
BT-474 [21] = experiment: Potency index, ratio of lapatinib IC50 to test compound IC50 for antiproliferative activity against human BT474 cells overexpressing HER2 assessed as cell growth inhibition measured after 72 hrs by MTT assay; type: functional
NCI-N87 [22] = experiment: Potency index, ratio of lapatinib IC50 to test compound IC50 for antiproliferative activity against human NCI-N87 cells overexpressing HER2 assessed as cell growth inhibition measured after 72 hrs by MTT assay; type: functional
A-431 [23] = experiment: Potency index, ratio of erlotinib IC50 to test compound IC50 for antiproliferative activity against human A431 cells overexpressing EGFR assessed as cell growth inhibition measured after 72 hrs by MTT assay; type: functional
BT-474 [24] = experiment: Potency index, ratio of erlotinib IC50 to test compound IC50 for antiproliferative activity against human BT474 cells overexpressing HER2 assessed as cell growth inhibition measured after 72 hrs by MTT assay; type: functional
Calu-3 [25] = experiment: Potency index, ratio of lapatinib IC50 to test compound IC50 for antiproliferative activity against human Calu3 cells overexpressing HER2 assessed as cell growth inhibition measured after 72 hrs by MTT assay; type: functional
A-431 [26] = experiment: Potency index, ratio of lapatinib IC50 to test compound IC50 for antiproliferative activity against human A431 cells overexpressing EGFR assessed as cell growth inhibition measured after 72 hrs by MTT assay; type: functional
Calu-3 [27] = experiment: Potency index, ratio of gefitinib IC50 to test compound IC50 for antiproliferative activity against human Calu3 cells overexpressing HER2 assessed as cell growth inhibition measured after 72 hrs by MTT assay; type: functional

T2 sequence (P00533 whole entry): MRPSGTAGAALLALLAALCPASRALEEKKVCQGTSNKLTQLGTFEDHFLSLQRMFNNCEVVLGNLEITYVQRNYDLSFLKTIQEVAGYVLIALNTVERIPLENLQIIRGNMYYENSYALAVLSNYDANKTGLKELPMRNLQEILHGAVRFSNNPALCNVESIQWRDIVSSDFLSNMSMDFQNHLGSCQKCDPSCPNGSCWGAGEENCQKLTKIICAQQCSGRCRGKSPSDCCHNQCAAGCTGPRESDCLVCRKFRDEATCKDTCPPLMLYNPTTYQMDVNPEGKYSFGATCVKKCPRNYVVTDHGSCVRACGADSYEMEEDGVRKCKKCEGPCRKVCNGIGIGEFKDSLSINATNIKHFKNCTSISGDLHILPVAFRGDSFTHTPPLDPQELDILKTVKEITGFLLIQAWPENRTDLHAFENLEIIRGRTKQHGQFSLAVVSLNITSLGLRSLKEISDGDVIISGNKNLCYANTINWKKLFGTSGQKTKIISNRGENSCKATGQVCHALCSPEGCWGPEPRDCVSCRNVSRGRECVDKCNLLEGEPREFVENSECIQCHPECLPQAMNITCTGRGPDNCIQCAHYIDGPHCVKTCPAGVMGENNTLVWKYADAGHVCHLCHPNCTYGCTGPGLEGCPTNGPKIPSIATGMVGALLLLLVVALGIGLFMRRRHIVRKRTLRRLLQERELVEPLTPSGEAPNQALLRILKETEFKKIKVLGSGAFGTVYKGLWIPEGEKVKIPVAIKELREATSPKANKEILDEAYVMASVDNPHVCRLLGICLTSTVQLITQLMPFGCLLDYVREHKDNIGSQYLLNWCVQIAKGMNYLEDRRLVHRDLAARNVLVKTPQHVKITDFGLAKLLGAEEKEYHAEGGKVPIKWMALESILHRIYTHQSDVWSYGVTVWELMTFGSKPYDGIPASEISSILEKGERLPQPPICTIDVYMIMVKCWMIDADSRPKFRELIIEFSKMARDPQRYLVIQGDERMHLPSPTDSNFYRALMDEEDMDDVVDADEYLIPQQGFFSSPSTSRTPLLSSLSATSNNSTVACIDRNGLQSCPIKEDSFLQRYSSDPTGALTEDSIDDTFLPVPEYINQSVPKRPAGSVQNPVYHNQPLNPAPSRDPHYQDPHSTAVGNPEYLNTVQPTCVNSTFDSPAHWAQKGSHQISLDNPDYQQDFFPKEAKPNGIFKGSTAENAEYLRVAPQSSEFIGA
T1 sequence (P04626 whole entry): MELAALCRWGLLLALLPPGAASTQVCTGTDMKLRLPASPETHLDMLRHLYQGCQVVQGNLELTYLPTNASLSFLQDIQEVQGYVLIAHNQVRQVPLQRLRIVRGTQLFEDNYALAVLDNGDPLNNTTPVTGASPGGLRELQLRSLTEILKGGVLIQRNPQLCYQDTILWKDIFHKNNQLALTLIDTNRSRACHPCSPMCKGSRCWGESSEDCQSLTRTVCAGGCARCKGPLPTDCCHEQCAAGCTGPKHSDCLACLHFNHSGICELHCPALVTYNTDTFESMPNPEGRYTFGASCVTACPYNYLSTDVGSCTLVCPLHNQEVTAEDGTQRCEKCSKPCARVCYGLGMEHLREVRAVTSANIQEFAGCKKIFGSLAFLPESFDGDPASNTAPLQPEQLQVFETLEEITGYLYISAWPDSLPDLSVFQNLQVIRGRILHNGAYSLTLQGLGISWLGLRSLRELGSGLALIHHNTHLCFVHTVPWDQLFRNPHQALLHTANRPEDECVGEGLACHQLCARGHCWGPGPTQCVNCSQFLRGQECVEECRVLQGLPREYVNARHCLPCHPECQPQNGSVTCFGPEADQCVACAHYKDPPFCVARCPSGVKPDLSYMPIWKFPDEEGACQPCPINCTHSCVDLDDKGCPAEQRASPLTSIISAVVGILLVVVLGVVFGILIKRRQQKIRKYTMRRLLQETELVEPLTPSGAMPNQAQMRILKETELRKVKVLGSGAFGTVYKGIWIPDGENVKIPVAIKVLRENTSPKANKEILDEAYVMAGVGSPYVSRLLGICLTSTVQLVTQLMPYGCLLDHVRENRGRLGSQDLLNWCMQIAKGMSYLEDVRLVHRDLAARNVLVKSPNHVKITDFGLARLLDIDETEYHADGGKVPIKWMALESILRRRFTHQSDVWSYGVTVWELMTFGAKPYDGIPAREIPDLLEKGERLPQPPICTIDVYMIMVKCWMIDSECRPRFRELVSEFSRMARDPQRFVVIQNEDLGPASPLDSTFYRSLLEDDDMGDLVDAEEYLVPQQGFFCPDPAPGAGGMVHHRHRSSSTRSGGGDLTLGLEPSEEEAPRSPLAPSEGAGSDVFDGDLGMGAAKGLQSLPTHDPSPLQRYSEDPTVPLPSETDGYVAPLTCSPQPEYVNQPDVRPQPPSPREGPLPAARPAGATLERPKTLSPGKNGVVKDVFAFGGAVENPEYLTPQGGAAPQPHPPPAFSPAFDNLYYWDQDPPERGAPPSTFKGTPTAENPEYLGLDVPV

Row | SMILES | IC50 (NCI-N87 [1]) [µM] | IC50 (BT-474 [2]) [µM] | IC50 (A-431 [3]) [µM] | IC50 (NCI-H1975 [4]) [µM] | IC50 (Calu-3 [5]) [µM] | IC50 [8] [µM] | other results
1 | CC1CCN(C/C=C/C(=O)N2CCOc3cc4ncnc(Nc5ccc(OCc6cccc(F)c6)c(Cl)c5)c4cc32)CC1 | 0.166 | 0.2 | 1.12 | 1.22 |  |  | 
2 | CS(=O)(=O)CCNCc1ccc(-c2ccc3ncnc(Nc4ccc(OCc5cccc(F)c5)c(Cl)c4)c3c2)o1 [LAPATINIB] | 0.053 | 0.037 | 3.59 | 7.37 | 0.216 |  | 
3 | CCN(CC)C/C=C/C(=O)N1CCOc2cc3ncnc(Nc4ccc(OCc5cccc(F)c5)c(Cl)c4)c3cc21 | 0.037 | 0.057 | 0.612 | 1.49 | 0.275 | 0.163 | Ratio IC50 [6]: 70; Ratio IC50 [7]: 3 to 4; IC50 [9]: 0.004 µM; Ratio IC50 (NCI-H1975 [10]): 4 - 8; Ratio IC50 [11]: 3 to 4; Ratio IC50 (NCI-H1975 [12]): 4 - 8; IC50 [13]: 0.008 µM; Ratio IC50 (NCI-H1975 [14]): 4 - 8; Ratio IC50 [15]: 92
4 | CCN(CC)C/C=C/C(=O)N1CCCOc2cc3ncnc(Nc4ccc(OCc5cccc(F)c5)c(Cl)c4)c3cc21 | > 10 | 0.116 | > 10 | 1.49 | > 10 | 0.08 | 
5 | CN(C)C/C=C/C(=O)N1CCCOc2cc3ncnc(Nc4ccc(OCc5cccc(F)c5)c(Cl)c4)c3cc21 | 0.074 | 0.127 | 2.4 | > 10 | > 10 | 0.446 | 
6 | O=C(/C=C/CN1CCCCC1)N1CCCOc2cc3ncnc(Nc4ccc(OCc5cccc(F)c5)c(Cl)c4)c3cc21 | > 10 | > 10 | > 10 | 1.66 | > 10 | 0.844 | 
7 | CC1CCN(C/C=C/C(=O)N2CCCOc3cc4ncnc(Nc5ccc(OCc6cccc(F)c6)c(Cl)c5)c4cc32)CC1 | 0.838 | 0.99 | 2.09 | > 10 | > 10 | 4.87 | 
8 | O=C(/C=C/CN1CCCC1)N1CCCOc2cc3ncnc(Nc4ccc(OCc5cccc(F)c5)c(Cl)c4)c3cc21 | 0.109 | 0.172 | 0.791 | > 10 | > 10 | 0.578 | 
9 | O=C(/C=C/CN1CCCC1)N1CCOc2cc3ncnc(Nc4ccc(OCc5cccc(F)c5)c(Cl)c4)c3cc21 | 0.048 | 0.06 | 0.633 | 1.67 | 0.177 | 0.121 | Ratio IC50 [6]: 70; Ratio IC50 [7]: 3 to 4; IC50 [9]: 0.004 µM; Ratio IC50 (NCI-H1975 [10]): 4 - 8; Ratio IC50 [11]: 3 to 4; Ratio IC50 (NCI-H1975 [12]): 4 - 8; IC50 [13]: 0.007 µM; Ratio IC50 (NCI-H1975 [14]): 4 - 8; Ratio IC50 [15]: 92
10 | CC1CCCCN1C/C=C/C(=O)N1CCCOc2cc3ncnc(Nc4ccc(OCc5cccc(F)c5)c(Cl)c4)c3cc21 (stereo not drawn) | 0.502 | 1.01 | > 10 | > 10 | > 10 | 5.83 | 
11 | O=C(/C=C/CN1CCCCC1)N1CCOc2cc3ncnc(Nc4ccc(OCc5cccc(F)c5)c(Cl)c4)c3cc21 | 0.073 | 0.118 | 0.788 | 1.78 |  | 0.116 | 
12 | O=C(/C=C/CN1CCOCC1)N1CCCOc2cc3ncnc(Nc4ccc(OCc5cccc(F)c5)c(Cl)c4)c3cc21 | > 10 | > 10 | > 10 | > 10 | > 10 | > 10 | 
13 | C#Cc1cccc(Nc2ncnc3cc(OCCOC)c(OCCOC)cc23)c1 [ERLOTINIB] | > 10 | > 10 |  |  |  |  | 
14 | CN(C)C/C=C/C(=O)N1CCOc2cc3ncnc(Nc4ccc(OCc5cccc(F)c5)c(Cl)c4)c3cc21 | 0.012 | 0.021 | 0.258 | 2.54 |  | 0.126 | 
15 | CN1CCN(C/C=C/C(=O)N2CCOc3cc4ncnc(Nc5ccc(OCc6cccc(F)c6)c(Cl)c5)c4cc32)CC1 | 0.018 | 0.025 | 0.177 | 2.31 | 0.142 | 0.045 | IC50 [9]: 0.012 µM; Ratio IC50 [11]: 3.7; IC50 [13]: 0.006 µM
16 | CC1CCCCN1C/C=C/C(=O)N1CCOc2cc3ncnc(Nc4ccc(OCc5cccc(F)c5)c(Cl)c4)c3cc21 (stereo not drawn) | 0.102 | 0.127 | 0.448 | 2.31 |  | 0.179 | 
17 | CN1CCN(C/C=C/C(=O)N2CCCOc3cc4ncnc(Nc5ccc(OCc6cccc(F)c6)c(Cl)c5)c4cc32)CC1 | 1.84 | 1.7 | 8.5 | > 10 | > 10 | 4.87 | 
18 | O=C(/C=C/Cn1ccnc1)N1CCOc2cc3ncnc(Nc4ccc(OCc5cccc(F)c5)c(Cl)c4)c3cc21 | 0.023 | 0.048 | 2.49 | 2 |  | 0.12 | 
19 | O=C(/C=C/CN1CCOCC1)N1CCOc2cc3ncnc(Nc4ccc(OCc5cccc(F)c5)c(Cl)c4)c3cc21 | 0.011 | 0.015 | 0.127 | 4.35 | 0.037 | 0.012 | Ratio IC50 (BT-474 [16]): 4.3 - 26.6; Ratio IC50 (NCI-N87 [17]): 4.3 - 26.6; Ratio IC50 (A-431 [18]): 4.3 - 26.6; IC50 [9]: 0.012 µM; Ratio IC50 (NCI-N87 [19]): >5.9 - 909; Ratio IC50 (Calu-3 [20]): >5.9 - 909; Ratio IC50 (BT-474 [21]): 2.5 - 28.3; Ratio IC50 (NCI-N87 [22]): 2.5 - 28.3; Ratio IC50 (A-431 [23]): >5.9 - 909; IC50 [13]: 0.007 µM; Ratio IC50 (BT-474 [24]): >5.9 - 909; Ratio IC50 (Calu-3 [25]): 2.5 - 28.3; Ratio IC50 (A-431 [26]): 2.5 - 28.3; Ratio IC50 (Calu-3 [27]): 4.3 - 26.6
